Test results: publication PMC4888459 (Biochemical Journal, 2016)

What was measured:
[1] = biological target: AgD from S. mutans (agmatine deiminase) (Streptococcus mutans, UniProt Q8DW17); assay: IC50 plot; assay type: biochemical
[2] = biological target: agmatine deiminase (AgD) (Listeria monocytogenes, UniProt A0A0H3G8U9); assay: IC50, colorimetric; assay type: biochemical
[3] = substrate: N=C(N)NCCCCN; assay: purified protein; assay type: biochemical, Listeria monocytogenes; conditions: active site (Cys356, His216; Asp94 and Asp218 believed to orient the substrate)

Sequence of AgD from S. mutans (agmatine deiminase) (Q8DW17 whole entry): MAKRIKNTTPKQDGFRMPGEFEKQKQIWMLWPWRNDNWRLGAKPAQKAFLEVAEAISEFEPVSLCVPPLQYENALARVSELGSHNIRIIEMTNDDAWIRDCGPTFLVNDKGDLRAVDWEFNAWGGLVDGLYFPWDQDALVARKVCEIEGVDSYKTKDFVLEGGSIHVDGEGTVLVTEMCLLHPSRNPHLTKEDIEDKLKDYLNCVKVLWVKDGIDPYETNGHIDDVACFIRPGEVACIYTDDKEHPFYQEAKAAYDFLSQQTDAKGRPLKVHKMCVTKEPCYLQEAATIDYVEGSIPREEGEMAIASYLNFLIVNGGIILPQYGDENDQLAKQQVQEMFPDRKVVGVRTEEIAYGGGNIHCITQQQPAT

Row | Molecule | IC50 [2] [µM] | other results
1 | N=C(N)CCl [2-chloroacetamidine] | – | IC50 [1]: 400 ± 100 µM
2 | N=C(CCl)NCCCCN [ABCA, N-(4-aminobutyl)-2-chloro-ethanimidamide] | 78.5 ± 1.7 | –
3 | N=C(CF)NCCCCN [ABFA, N-(4-aminobutyl)-2-fluoro-ethanimidamide] | 146 ± 15 | –
4 | agmatine deiminase (AgD) (Listeria monocytogenes 10403S) (protein) MRTIDSSSKKDGFRMPGEFEKHAGCYIIWPERPDNWRLGAKPAQKAFVDVATAISHFEPVTVVASSSQYVNARYMLSDEIRVVEMDNDDAWVRDSGPTFVVNDSGDVRGVDWSFNSWGGLVDGLYFPWDKDDQVAQKICELERKDRYRLADFVLEGGSIHVDGEGTLVTTEECLLSEGRNPQLSKQQIEMVLKEYLNLEKIIWLKRGIYLDETNGHVDNIFNYVRPGVVALAWTDDETDPQYEISKECFDILSNETDAKGRKLEVHKINVPKPILITDEESKGVDAVEGTLPREEGDRLAASYINYYTANGGVIFPLFGDPNDELAREKLQQLYPNCEVVGVKAREILLGGGNIHCITQQVPRG | – | Km [3]: 330 ± 90.0 µM
